In PubChem BioAssay AID330 (DTP/NCI, 2004):
Where “and” joins values, the source holds several entries; their conditions need not be identical. Equal entries are not always repeated. Toxic doses and inconclusive results are not listed.

Tested on: P388 leukemia ip, CD2F1 mice, survival T/C
Assay: NCI In Vivo Anticancer Drug Screen. Data for tumor model P388 Leukemia (intraperitoneal) in CD2F1 (CDF1) mice
Conditions: endpoint: median survival time, higher = longer survival
Method in brief: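 Mice carrying the transplanted tumor received test compound or vehicle. Survival was recorded in each group, and the value is the treated-group measurement divided by that of the vehicle-treated control group.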

[1] = dose: 50.0 mg/kg/injection, schedule: Q01DX005 (ip), vehicle: Klucel (hydroxypropylcellulose) (HPC)
[2] = dose: 100.0 mg/kg/injection, schedule: Q01DX005 (ip), vehicle: Klucel (hydroxypropylcellulose) (HPC)
[3] = dose: 200.0 mg/kg/injection, schedule: Q01DX005 (ip), vehicle: Klucel (hydroxypropylcellulose) (HPC)
[4] = dose: 50.0 mg/kg/injection, schedule: Q01DX005 (ip), vehicle: saline with Tween-80
[5] = dose: 100.0 mg/kg/injection, schedule: Q01DX005 (ip), vehicle: saline with Tween-80

In the case of `OCc1c(-c2ccc(Cl)cc2)c(-c2ccccc2)c2n1CCC2`, the T/C [1] was 94 % of control, the T/C [2] was 91 % of control and the T/C [3] was 92 % of control.
In the case of `Cc1ccc(S(=O)(=O)N=Nc2c(O)[nH]c3c(Cl)cc(Cl)cc23)cc1`, the T/C [4] was 103 % of control, the T/C [5] was 100 % of control and the T/C (dose: 200.0 mg/kg/injection, schedule: Q01DX005 (ip), vehicle: saline with Tween-80) was 95 % of control.
For `CC12CCC(O1)C1C(=O)NC(=O)C12` (centres undefined), the T/C (dose: 50.0 mg/kg/injection, schedule: Q01DX005 (ip), vehicle: saline) was 102 % of control, the T/C (dose: 100.0 mg/kg/injection, schedule: Q01DX005 (ip), vehicle: saline) was 108 % of control and the T/C (dose: 200.0 mg/kg/injection, schedule: Q01DX005 (ip), vehicle: saline) was 100 % of control.
With `CS(=O)CCCC#N` (centres undefined) the T/C (dose: 18.75 mg/kg/injection, schedule: Q01DX009 (ip), vehicle: saline with Tween-80) was 115 % of control, the T/C (dose: 37.5 mg/kg/injection, schedule: Q01DX009 (ip), vehicle: saline with Tween-80) was 100 % of control and the T/C (dose: 75.0 mg/kg/injection, schedule: Q01DX009 (ip), vehicle: saline with Tween-80) was 110 % of control. The T/C (dose: 150.0 mg/kg/injection, schedule: Q01DX009 (ip), vehicle: saline with Tween-80) was 100 % of control and the T/C (dose: 300.0 mg/kg/injection, schedule: Q01DX009 (ip), vehicle: saline with Tween-80) was 105 % of control.
With `O=C1C(=Cc2cc(Cl)c(O)c(Cl)c2)C(=O)c2ccccc21` the T/C (dose: 100.0 mg/kg/injection, schedule: Q04DX002 (ip), vehicle: saline) was 97 % of control, the T/C (dose: 200.0 mg/kg/injection, schedule: Q04DX002 (ip), vehicle: saline) was 86 % of control and the T/C (dose: 400.0 mg/kg/injection, schedule: Q04DX002 (ip), vehicle: saline) was 88 % of control.
In the case of `O=C(CC(=NCCN=C(CC(=O)c1ccccc1)c1ccccc1)c1ccccc1)c1ccccc1`, the T/C (dose: 50.0 mg/kg/injection, schedule: Q01DX009 (ip), vehicle: saline with Tween-80) was 112 % of control, the T/C (dose: 100.0 mg/kg/injection, schedule: Q01DX009 (ip), vehicle: saline with Tween-80) was 100 % of control and the T/C (dose: 200.0 mg/kg/injection, schedule: Q01DX009 (ip), vehicle: saline with Tween-80) was 100 % of control.
`CCOC(=O)NC(=S)Nc1ncn[nH]1` was tested, and the T/C (dose: 50.0 mg/kg/injection, schedule: Q04DX003 (ip), vehicle: saline with Tween-80) was 100 % of control, the T/C (dose: 100.0 mg/kg/injection, schedule: Q04DX003 (ip), vehicle: saline with Tween-80) was 95 % of control and the T/C (dose: 200.0 mg/kg/injection, schedule: Q04DX003 (ip), vehicle: saline with Tween-80) was 100 % of control. For the same compound, the T/C (dose: 400.0 mg/kg/injection, schedule: Q04DX003 (ip), vehicle: saline with Tween-80) was 99 % of control.
For `OC1C(CCl)OC(OC2(CCl)OC(CCl)C(O)C2O)C(O)C1O` (centres undefined), the T/C (dose: 50.0 mg/kg/injection, schedule: Q01DX009 (ip), vehicle: Klucel (hydroxypropylcellulose) (HPC)) was 94 % of control, the T/C (dose: 100.0 mg/kg/injection, schedule: Q01DX009 (ip), vehicle: Klucel (hydroxypropylcellulose) (HPC)) was 109 % of control and the T/C (dose: 200.0 mg/kg/injection, schedule: Q01DX009 (ip), vehicle: Klucel (hydroxypropylcellulose) (HPC)) was 110 % of control.
`CCCCC(=O)N/N=C(\C)[C@]1(O)Cc2c(O)c3c(c(O)c2[C@@H](OC2CC(N)C(O)C(C)O2)C1)C(=O)c1c(OC)cccc1C3=O` (some centres undefined) was tested, and the T/C (dose: 0.12 mg/kg/injection, schedule: Q01DX009 (ip), vehicle: water) was 117 % of control, the T/C (dose: 0.25 mg/kg/injection, schedule: Q01DX009 (ip), vehicle: water) was 122 % of control and the T/C (dose: 0.5 mg/kg/injection, schedule: Q01DX009 (ip), vehicle: water) was 155 % of control. The T/C (dose: 1.0 mg/kg/injection, schedule: Q01DX009 (ip), vehicle: water) was 190 % of control, the T/C (dose: 2.0 mg/kg/injection, schedule: Q01DX009 (ip), vehicle: water) was 180 % of control and 190 % of control and the T/C (dose: 4.0 mg/kg/injection, schedule: Q01DX009 (ip), vehicle: water) was 195 % of control and 238 % of control. For the same compound, the T/C (dose: 8.0 mg/kg/injection, schedule: Q01DX009 (ip), vehicle: water) was 152 % of control and 247 % of control.
For `FC(F)(F)c1ccc2nc(Cl)[nH]c2c1`, the T/C [4] was 98 % of control and the T/C [5] was 98 % of control.
`COc1cccc2c1C(=O)c1nccc3cc4c(c-2c13)OCO4` was tested, and the T/C (dose: 30.0 mg/kg/injection, schedule: Q01DX005 (ip), vehicle: Klucel (hydroxypropylcellulose) (HPC)) was 91 % of control, the T/C (dose: 60.0 mg/kg/injection, schedule: Q01DX005 (ip), vehicle: Klucel (hydroxypropylcellulose) (HPC)) was 90 % of control and the T/C (dose: 120.0 mg/kg/injection, schedule: Q01DX005 (ip), vehicle: Klucel (hydroxypropylcellulose) (HPC)) was 110 % of control.
With `CC(C)NC(=O)OCc1c(COC(=O)NC(C)C)c([N+](=O)[O-])n2c1CCC2` the T/C (dose: 25.0 mg/kg/injection, schedule: Q01DX005 (ip), vehicle: Klucel (hydroxypropylcellulose) (HPC)) was 95 % of control, the T/C [1] was 99 % of control and the T/C [2] was 99 % of control and 97 % of control. The T/C [3] was 104 % of control and 94 % of control and the T/C (dose: 400.0 mg/kg/injection, schedule: Q01DX005 (ip), vehicle: Klucel (hydroxypropylcellulose) (HPC)) was 100 % of control.
